The source of these data is ChEMBL document CHEMBL5257132, “Discovery of a Novel Series of Potent SHP2 Allosteric Inhibitors” (ACS Med Chem Lett, 2023).

Converted amounts (≈) assume the structure as drawn.

A short description of data set [1]: AUC in Sprague-Dawley rat plasma at 1 mg/kg,po administered as 60:20:20 PEG400/DMSO/H2O formulation and measured upto 24 hrs by LC-MS/MS analysis. The data set is classed as ADME, organism-based. The arrangement: time < 24 hrs, dose 1 mg/kg, route po.
A short description of data set [2]: Metabolic stability in Sprague-Dawley rat liver microsomes assessed as intrinsic clearance at 1 uM and measured upto 60 mins in presence of NADPH as cofactor by LC-MS/MS analysis. The data set is classed as ADME, Microsome. As to conditions: read-out: CLH. (In general: Microsomes from liver hold many membrane-bound enzymes, among them those of drug oxidation.)

Data set [3] is described as follows: Metabolic stability in human liver microsomes assessed as intrinsic clearance at 1 uM and measured upto 60 mins in presence of NADPH as cofactor by LC-MS/MS analysis. The data set is classed as ADME, Microsome. The conditions noted are these: read-out: CLH.
The nature of data set [4]: Apparent permeability of compound in dog MDCK-MDR1 cells by LC-MS/MS analysis. The data set is classed as ADME, cell-based, Canis lupus familiaris.
A short description of data set [5]: AUC in Sprague-Dawley rat plasma at 1 mg/kg,po administered as 50:50 PEG400/Labrasol formulation and measured upto 24 hrs by LC-MS/MS analysis. The data set is classed as ADME, organism-based. The arrangement: dose 1 mg/kg, time < 24 hrs, route po.
For data set [6], the target named is T1, Tyrosine-protein phosphatase non-receptor type 11 (Homo sapiens, UniProt Q06124).
T1 sequence (Q06124 whole entry): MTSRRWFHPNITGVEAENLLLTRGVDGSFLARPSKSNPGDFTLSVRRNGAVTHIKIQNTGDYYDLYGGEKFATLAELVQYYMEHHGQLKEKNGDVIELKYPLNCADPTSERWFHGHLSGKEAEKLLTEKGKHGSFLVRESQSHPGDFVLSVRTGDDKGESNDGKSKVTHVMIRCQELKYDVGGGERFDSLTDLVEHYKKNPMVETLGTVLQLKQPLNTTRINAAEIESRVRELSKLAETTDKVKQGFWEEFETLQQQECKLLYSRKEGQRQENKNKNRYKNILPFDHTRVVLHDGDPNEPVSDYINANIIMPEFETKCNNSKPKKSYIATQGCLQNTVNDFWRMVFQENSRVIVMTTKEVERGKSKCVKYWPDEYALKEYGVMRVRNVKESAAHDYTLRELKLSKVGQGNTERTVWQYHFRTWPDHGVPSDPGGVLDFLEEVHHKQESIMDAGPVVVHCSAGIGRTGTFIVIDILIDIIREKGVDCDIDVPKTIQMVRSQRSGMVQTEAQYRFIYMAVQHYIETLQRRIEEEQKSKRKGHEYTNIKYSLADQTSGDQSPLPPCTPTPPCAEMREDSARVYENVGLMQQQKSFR
Briefly: Allosteric inhibition of recombinant human SHP2 using IRS1 peptide and DiFMUP as substrate incubated for 30 mins followed by DiFMUP addition and measured after 30 mins by fluorescence based microplate reader analysis.

Data set [7] in a line: AUC in Sprague-Dawley rat plasma at 1 mg/kg,po administered as 60:20:20 PEG400/DMSO/H2O formulation and measured upto 24 hrs in presence of Elacridar by LC-MS/MS analysis. The data set is classed as ADME, organism-based. The arrangement: time < 24 hrs, dose 1 mg/kg, route po. As to conditions: with Elacridar (dose not stated).
The nature of data set [8]: Half life in Sprague-Dawley rat plasma at 0.5 mg/kg, iv and measured upto 24 hrs by LC-MS/MS analysis. It counts as ADME, organism-based.
The test system of a further data set is KYSE-520 cell line. Description: Antiproliferative activity against human KYSE520 cells assessed as inhibition of cell proliferation incubated for 96 hrs by CellTiter-Glo reagent based assay. The data set is classed as functional. The conditions noted are these: KYSE-520, 96 h. (In general: In ATP-based viability assays light output follows the ATP content of the culture.)

Data set [9] in a line: Volume of distribution at steady state in Sprague-Dawley rat plasma at 0.5 mg/kg, iv and measured upto 24 hrs by LC-MS/MS analysis. It counts as ADME, organism-based. As to conditions: read-out: Vdss.
A short description of data set [10]: Kinetic solubility of compound in FaSSGF by LCMS analysis. The conditions noted are these: read-out: Kinetic_solubility. The data set is classed as ADME.
Data set [11] in a line: Cmax in Sprague-Dawley rat plasma at 1 mg/kg, po administered as 60:20:20 PEG400/DMSO/H2O formulation and measured upto 24 hrs by LC-MS/MS analysis. It counts as ADME, organism-based. The arrangement: dose 1 mg/kg, time < 24 hrs, route po.
A short description of data set [12]: Kinetic solubility of compound in FeSSIF by LCMS analysis. The data set is classed as ADME. The conditions noted are these: read-out: Kinetic_solubility.
Data set [13] can be described thus: Kinetic solubility of compound in FaSSIF by LCMS analysis. The data set is classed as ADME. The conditions noted are these: read-out: Kinetic_solubility.
Data set [14] can be described thus: Inhibition of ERK phosphorylation in human KYSE520 cells incubated for 2 hrs by TR-FRET assay. The data set is classed as cell-based. As to conditions: KYSE-520, 2 h. For orientation: TR-FRET usually uses a lanthanide donor and a delayed reading to cut background.
Data set [15] can be described thus: Efflux ratio of apparent permeability […] in dog MDCK-MDR1 cells by LC-MS/MS analysis. It counts as ADME, cell-based, Canis lupus familiaris.
For data set [16], the target named is Voltage-gated inwardly rectifying potassium channel KCNH2 (Homo sapiens, UniProt Q12809). Briefly: Inhibition of human ERG by fluorescence polarization assay. The data set is classed as toxicity.
Sequence of Voltage-gated inwardly rectifying potassium channel KCNH2 (Q12809 whole entry): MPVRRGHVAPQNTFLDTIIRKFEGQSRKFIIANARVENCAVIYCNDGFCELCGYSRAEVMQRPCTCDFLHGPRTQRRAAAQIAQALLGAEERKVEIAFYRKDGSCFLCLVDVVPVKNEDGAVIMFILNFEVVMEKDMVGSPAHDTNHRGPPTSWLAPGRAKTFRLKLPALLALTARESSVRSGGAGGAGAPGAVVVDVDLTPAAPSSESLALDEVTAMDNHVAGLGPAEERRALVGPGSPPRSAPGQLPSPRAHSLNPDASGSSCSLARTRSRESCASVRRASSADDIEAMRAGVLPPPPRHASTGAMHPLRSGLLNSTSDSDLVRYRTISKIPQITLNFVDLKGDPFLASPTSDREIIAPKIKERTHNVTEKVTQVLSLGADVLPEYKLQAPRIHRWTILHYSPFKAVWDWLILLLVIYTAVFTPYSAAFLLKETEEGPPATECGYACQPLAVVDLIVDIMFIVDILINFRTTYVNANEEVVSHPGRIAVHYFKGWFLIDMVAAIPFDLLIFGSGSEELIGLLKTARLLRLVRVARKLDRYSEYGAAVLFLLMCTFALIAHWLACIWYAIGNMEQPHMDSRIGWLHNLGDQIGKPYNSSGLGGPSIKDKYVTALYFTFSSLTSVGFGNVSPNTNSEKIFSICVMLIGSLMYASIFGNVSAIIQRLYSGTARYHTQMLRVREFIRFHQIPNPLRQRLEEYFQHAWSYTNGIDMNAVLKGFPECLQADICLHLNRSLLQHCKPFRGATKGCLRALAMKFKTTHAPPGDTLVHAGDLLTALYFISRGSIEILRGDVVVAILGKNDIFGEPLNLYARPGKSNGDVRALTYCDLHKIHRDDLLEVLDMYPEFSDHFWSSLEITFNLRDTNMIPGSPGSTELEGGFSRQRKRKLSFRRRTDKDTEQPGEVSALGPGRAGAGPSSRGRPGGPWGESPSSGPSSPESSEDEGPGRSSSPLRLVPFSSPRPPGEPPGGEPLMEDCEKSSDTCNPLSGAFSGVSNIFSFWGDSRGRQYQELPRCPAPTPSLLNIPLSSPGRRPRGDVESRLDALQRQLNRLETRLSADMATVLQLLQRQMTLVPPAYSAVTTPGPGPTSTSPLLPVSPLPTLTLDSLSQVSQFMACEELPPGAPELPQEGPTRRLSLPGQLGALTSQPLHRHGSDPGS
Data set [17] is described as follows: Clearance in Sprague-Dawley rat plasma at 0.5 mg/kg, iv and measured upto 24 hrs by LC-MS/MS analysis. The data set is classed as ADME, organism-based.
Data set [18] in a line: Oral bioavailability in Sprague-Dawley rat plasma at 1 mg/kg administered as 60:20:20 PEG400/DMSO/H2O formulation and measured upto 24 hrs by LC-MS/MS analysis. It counts as ADME, organism-based.

Broadly, the AUC is the area under the concentration-time curve, a measure of exposure. Broadly, the Papp is a coefficient for how fast a substance crosses the barrier. For orientation: IC50 means the concentration that inhibits the measured activity by half. Broadly, the half-life is how long it takes for the measured level to halve. The low end stands for fast loss, the high end for slow loss. In general, Cmax refers to the highest concentration seen after dosing. In general, clearance refers to the volume of plasma or blood freed of the substance per unit of time. Higher therefore signals efficient removal. By bioavailability is commonly meant dose-corrected exposure relative to a reference, in per cent. The low end stands for little systemic uptake, the high end for much systemic uptake. As for `Cc1csc([C@@]2(CN)[C@@H]3CN(c4cnc5c(-c6ccc7nn(C)cc7c6Cl)n[nH]c5n4)C[C@@H]32)n1`, the AUC at 24 h stood at 0.01 µM·h in data set [1], 0.05 µM·h in data set [5] and 0.58 µM·h in data set [7]. In addition, the results for the microsomal CLint at 1 µM in data set [2] and in data set [3] were 25 µL/min/mg and 13.5 µL/min/mg, respectively. Besides, in data set [4], the apparent permeability coefficient (Papp) amounted to 9.2 ×10⁻⁶ cm/s. The IC50 in [6] is 5 nM; in the data set on KYSE-520 cell line, 166 nM; in data set [14] it was 24 nM; in data set [16] it was above 30000 nM. In addition, the half-life in [8] was 1.9 h. For the same molecule, the Vd in data set [9] is 1 L/kg. The solubility kinetic in data set [10] came out at 175 µM (≈ 86.1 µg/mL); in [12] it was 168 µM (≈ 82.7 µg/mL); in data set [13] it was 124 µM (≈ 61 µg/mL). In data set [11], the Cmax stood at 10 nM. In addition, the Ratio in data set [15] came to 0.7. In data set [17], the clearance turned out to be 16.2 mL/min/kg. This molecule had a bioavailability in data set [18] of 1.2%.
